The results in this text go back to patent US20220085295A1, “Novel Compound and Organic Light Emitting Device Comprising the Same” (LG Chem, Ltd., priority 2019, published 2022).

This data set in a line: Solubility experiment in toluene. The data set is classed as physicochemical. Conditions: in toluene at room temperature/normal pressure.

SMILES strings stand for the structures.

For the compound `CC(C)(C)c1ccc(N(c2ccc(C(C)(C)C)cc2)c2ccc(C3(c4ccc(C(C)(C)C)cc4)c4cc(N(c5ccccc5)c5ccc(C(C)(C)C)cc5)ccc4-c4c3cc(N(c3ccccc3)c3ccc(C(C)(C)C)cc3)c3oc5ccccc5c43)cc2)cc1` (stereo not shown) [Compound 1], the “Solubility (wt %)” value is on record as 4.5 wt %. For the compound `CC(C)(C)c1ccc(N(c2ccc(C(C)(C)C)cc2)c2ccc(C3(c4ccc(C(C)(C)C)cc4)c4cc(N(c5ccc(C(C)(C)C)cc5)c5cccc6c5oc5ccccc56)ccc4-c4c3cc(N(c3ccc(C(C)(C)C)cc3)c3cccc5c3oc3ccccc35)c3oc5ccccc5c43)cc2)cc1` (stereo not shown) [Compound 2], the “Solubility (wt %)” value turned out to be 4.7 wt %. To `CC(C)(C)c1ccc(N(c2ccc(C(C)(C)C)cc2)c2ccc(C3(c4ccc(C(C)(C)C)cc4)c4cc(N(c5ccccc5)c5ccc(C(C)(C)C)cc5)ccc4-c4c3cc(N(c3ccccc3)c3ccc(C(C)(C)C)cc3)c3c4-c4ccccc4C3(C)C)cc2)cc1` (stereo not shown) [Compound 3] belongs 5.8 wt %; to `CC(C)(C)c1ccc(N(c2ccc(C(C)(C)C)cc2)c2ccc(C3(c4ccc(C(C)(C)C)cc4)c4cc(N(c5ccc(C(C)(C)C)cc5)c5cccc6c5oc5ccccc56)ccc4-c4c3cc(N(c3ccc(C(C)(C)C)cc3)c3cccc5c3oc3ccccc35)c3c4-c4ccccc4C3(C)C)cc2)cc1` (stereo not shown) [Compound 4], 5.5 wt %.

Turning to `CC(C)(C)c1ccc(N(c2ccc(C(C)(C)C)cc2)c2ccc(C3(c4ccc(C(C)(C)C)cc4)c4cc(N(c5ccccc5)c5ccc(C(C)(C)C)cc5)c5c(oc6ccccc65)c4-c4c3cc(N(c3ccccc3)c3ccc(C(C)(C)C)cc3)c3oc5ccccc5c43)cc2)cc1` (stereo not shown) [Compound 5], the “Solubility (wt %)” value is 3.9 wt %. To `CC(C)(C)c1ccc(N(c2ccc(C(C)(C)C)cc2)c2ccc(C3(c4ccc(C(C)(C)C)cc4)c4cc(N(c5ccc(C(C)(C)C)cc5)c5cccc6c5oc5ccccc56)c5c(oc6ccccc65)c4-c4c3cc(N(c3ccc(C(C)(C)C)cc3)c3cccc5c3oc3ccccc35)c3oc5ccccc5c43)cc2)cc1` (stereo not shown) [Compound 6] belongs 4.1 wt %. To `CC(C)(C)c1ccc(Oc2ccc(C3(c4ccc(C(C)(C)C)cc4)c4cc(N(c5ccccc5)c5ccc(C(C)(C)C)cc5)c5c(oc6ccccc65)c4-c4c3cc(N(c3ccccc3)c3ccc(C(C)(C)C)cc3)c3oc5ccccc5c43)cc2)cc1` (stereo not shown) [Compound 7] belongs 3.8 wt %. For `CC(C)(C)c1ccc(Sc2ccc(C3(c4ccc(C(C)(C)C)cc4)c4cc(N(c5ccccc5)c5ccc(C(C)(C)C)cc5)c5c(oc6ccccc65)c4-c4c3cc(N(c3ccccc3)c3ccc(C(C)(C)C)cc3)c3oc5ccccc5c43)cc2)cc1` (stereo not shown) [Compound 8] the value was 3.9 wt %; for `Cc1ccc(C)c(C2(c3ccc([Si](C)(C)C)cc3)c3cc(N(c4ccccc4)c4ccc(C(C)(C)C)cc4)c4c(oc5ccccc54)c3-c3c2cc(N(c2ccccc2)c2ccc(C(C)(C)C)cc2)c2oc4ccccc4c32)c1` (stereo not shown) [Compound 9], 3.4 wt %. As for `CC(C)(C)c1ccc(N(c2ccccc2)c2ccc3c(c2)C2(c4ccccc4-c4ccccc42)c2cc(N(c4ccccc4)c4ccc(C(C)(C)C)cc4)c4c(oc5ccccc54)c2-3)cc1` [Compound BD, reference compound], the “Solubility (wt %)” value is given as 2.0 wt %.
